The results in this text go back to patent US20200281834A1, “COMPOSITION FOR PROMOTING EXPRESSION OF AQUAPORIN 3, AND USE THEREOF” (SUNTORY HOLDINGS LIMITED, priority 2017, published 2020).

The subject of this assay is aquaporin 3. As to the kind of experiment: Expression level of aquaporin 3 in skin epithelial cells (real-time PCR, corrected for GAPDH). Type of assay: cell-based, Human. To be noted: NHEK, 24 hours. Background: In qPCR the cycle at which signal appears reflects the starting amount.
Where [1] appears, read: 30 μM, control (culture solution) = 1.0.
The mark [2] stands for this setting: 50 μM, control (culture solution) = 1.0.

Where “and” joins values, the source holds several entries; their conditions need not be identical. Equal entries are not always repeated.

Experimental: As a control, 50% ethanol was prepared.
As a positive control, retinoic acid was prepared.
Human epidermal keratinocytes (NHEK (AD)) were precultured under conditions of 37° C. and 5% CO2 in a serum-free liquid medium for growing human epidermal keratinocyte (HuMedia-KG2 manufactured by Kurabo Industries, Ltd.) in a 21 cm^2 dish, and cultured until the cells became sub-confluent.
Next, each test sample was added to the culture solution. Each test sample was added to the culture solution in such a manner that the concentration of the wine in the culture solution was equivalent to 1/400 of the concentration of each original composition (wine).
After each test sample was added, the cells were cultured under conditions of 37° C. and 5% CO2 for 24 hours.
Instead of each test sample, 0.125 mL of 50% ethanol as a control was added to 5 mL of the culture solution.
Instead of each test sample, retinoic acid as a positive control was added to the culture solution in such a manner that the concentration of the retinoic acid in the culture solution was 2 μM.
After the compositions as the controls were added, the cells were cultured under conditions of 37° C. and 5% CO2 for 24 hours.
After the culture of skin epithelial cells in “(2) Culture of Skin Epithelial Cells”, RNA was extracted from the cultured cells with ISOGEN (manufactured by Nippon Gene Co., Ltd.).
From 1 μg of the resulting RNA, cDNA was synthesized with Superscript VILO Master Mix (manufactured by Invitrogen).
Thereafter, with primers (primers having nucleotide sequences of SEQ ID NOS: 1 and 2) shown in Table 4, real-time PCR was performed to detect expression of aquaporin 3 (Genbank Accession No. NM_004925).
For PCR, KOD SYBR qPCR Mix (manufactured by Toyobo Co., Ltd.) was used, and the reaction conditions were set such that thermal denaturation was carried out at 98° C. for 10 seconds, annealing was carried out at 60° C. for 10 seconds, and elongation reaction was carried out at 68° C. for 30 seconds.
The fluorescence intensity in the process of amplification was monitored with a quantitative PCR apparatus StepOnePlus (manufactured by Applied Biosystems) to determine the number of cycles taken until the fluorescence intensity became constant. From the number of cycles for aquaporin 3, the expression level was calculated through a standard method.
In parallel to detection of the expression level of aquaporin 3 by real-time PCR, the expression level of glyceraldehyde-3-phosphate dehydrogenase (GAPDH) (Genbank Accession No. NM_002046) which is a housekeeping gene was measured with primers (primers having nucleotide sequences of SEQ ID NOS: 3 and 4) shown in Table 4.
The expression level of aquaporin 3 in the cultured cells was corrected for the expression level of GAPDH, and the expression level relative against the expression level of aquaporin 3 in the control was calculated, where the expression level of aquaporin 3 in the control was defined as 1.0.
The expression level of aquaporin 3 in skin epithelial cells was measured in the same manner as in “Method for Evaluating Expression Level of Aquaporin 3” except that instead of each test sample, 0.0125 mL of each fraction was added to 5 mL of a culture solution.
Each compound was dissolved in a human epidermal keratinocyte growing serum-free liquid medium (HuMedia-KG2 manufactured by Kurabo Industries, Ltd.) to prepare a test sample.
The culture solution was used as a control.

In the case of `O=C(O[C@@H]1Cc2c(O)cc(O)c([C@@H]3c4c(O)cc(O)cc4O[C@H](c4ccc(O)c(O)c4)[C@H]3O)c2O[C@@H]1c1ccc(O)c(O)c1)c1cc(O)c(O)c(O)c1` [C-ECG, (+)-catechin-(−)epicatechin-3-O-gallate], the “Relative gene expression level (average) of aquaporin 3” value (from here on “Relative gene expression level”) under setting [1] is on record as 2.19 and the “Relative gene expression level” value under setting [2] was found to be 2.59.

With `O=C(O[C@@H]1Cc2c(O)cc(O)cc2O[C@@H]1c1cc(O)c(O)c(O)c1)c1cc(O)c(O)c(O)c1` [EGCG, epigallocatechin gallate], the “Relative gene expression level” value is 1.36 under setting [1] and 1.47 under setting [2].

Consider `Oc1cc(O)c2c(c1)O[C@H](c1ccc(O)c(O)c1)[C@@H](O)[C@@H]2c1c(O)cc(O)c2c1O[C@H](c1ccc(O)c(O)c1)[C@H](O)C2` [C-EC, procyanidin B4], for which the “Relative gene expression level” value amounted to 1.24 under setting [1] and 1.12 under setting [2].

Turning to catechin, the “Relative gene expression level” value is, setting by setting: under setting [1], 1.19; under setting [2], 1.14.

For `Oc1cc(O)c2c(c1)O[C@H](c1ccc(O)c(O)c1)[C@H](O)[C@H]2c1c(O)cc(O)c2c1O[C@H](c1ccc(O)c(O)c1)[C@H](O)C2` [EC-EC, procyanidin B2], the “Relative gene expression level” value worked out at 0.98 under setting [1] and 0.99 under setting [2].

Take `Oc1cc(O)c2c(c1)O[C@H](c1ccc(O)c(O)c1)[C@H](O)C2` [EC, epicatechin]: the “Relative gene expression level” value reads like this: under setting [1], 1.15; under setting [2], 1.21.

As to `CC1=C(/C=C/C(C)=C/C=C/C(C)=C/C(=O)O)C(C)(C)CCC1` [Retinoic acid, retinoic acid], the “Relative gene expression level” value reads like this: (2 μM, control (50% ethanol) = 1.0) 1.61; (2 μM, control (culture solution) = 1.0, listed as RA) 1.32 and 1.36 and 1.21.

Consider `Oc1cc(O)c2c(c1)O[C@H](c1ccc(O)c(O)c1)[C@@H](O)[C@@H]2c1c(O)cc(O)c2c1O[C@H](c1ccc(O)c(O)c1)[C@@H](O)C2` [C-C, Procyanidin B3], for which the “Relative gene expression level” value reads like this: under setting [1], 1.19; under setting [2], 1.27.

With `Oc1cc(O)c2c(c1)O[C@H](c1ccc(O)c(O)c1)[C@H](O)[C@H]2c1c(O)cc(O)c2c1O[C@H](c1ccc(O)c(O)c1)[C@H](O)[C@H]2c1c(O)cc(O)c2c1O[C@H](c1ccc(O)c(O)c1)[C@H](O)C2` [PC1, procyanidin C1], the “Relative gene expression level” value was 1.41 under setting [1] and 1.34 under setting [2].

As to `Oc1cc(O)c2c(c1)O[C@H](c1ccc(O)c(O)c1)[C@H](O)[C@H]2c1c(O)cc(O)c2c1O[C@H](c1ccc(O)c(O)c1)[C@@H](O)C2` [EC-C, Procyanidin B1], the “Relative gene expression level” value is listed as 1.14 under setting [1] and 1.20 under setting [2].

As for “(+)-catechin-(+)-catechin-(−)-epicatechin-3-O-gallate [C-C-ECG]”, the “Relative gene expression level” value reads like this: under setting [1], 2.01; under setting [2], 2.50.

As to `O=C(O[C@@H]1Cc2c(O)cc(O)cc2O[C@@H]1c1ccc(O)c(O)c1)c1cc(O)c(O)c(O)c1` [ECG, epicatechin gallate], the “Relative gene expression level” value turned out to be 1.63 under setting [1] and 1.25 under setting [2].
